The molecules below were run against T1, 3α-Hydroxysteroid Dehydrogenase (H.DH) (Comamonas testosteroni, UniProt P80702) (assay: Relative activity of substrates with 3α-hydroxysteroid dehydrogenase (vs cholic acid)). Settings: relative to Cholic Acid.
T1 sequence (P80702 1-257): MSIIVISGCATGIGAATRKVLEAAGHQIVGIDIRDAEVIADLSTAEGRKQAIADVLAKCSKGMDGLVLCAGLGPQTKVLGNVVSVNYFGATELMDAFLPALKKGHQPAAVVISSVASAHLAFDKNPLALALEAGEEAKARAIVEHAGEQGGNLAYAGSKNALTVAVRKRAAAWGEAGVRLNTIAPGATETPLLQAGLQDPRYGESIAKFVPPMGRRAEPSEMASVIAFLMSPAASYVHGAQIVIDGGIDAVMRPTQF
Format: biochemical
Excerpt: Their activities relative to Cholic Acid are also listed.

Point of comparison: Etiocholic Acid, “Relative Activity” value 60%. Against it:
- C[C@H](CCC(=O)O)[C@H]1CC[C@H]2[C@@H]3CC[C@@H]4C[C@H](O)CC[C@]4(C)[C@H]3CC[C@]12C [Lithocholic Acid] — higher, 96%

Each molecule was assayed against T2, Leucine Dehydrogenase (L.D) (Bacillus cereus, UniProt P0A393) (assay: Relative activity of substrates with leucine dehydrogenase (vs L-leucine)). Settings: relative to L-leucine (100%).
T2 sequence (P0A393 1-366): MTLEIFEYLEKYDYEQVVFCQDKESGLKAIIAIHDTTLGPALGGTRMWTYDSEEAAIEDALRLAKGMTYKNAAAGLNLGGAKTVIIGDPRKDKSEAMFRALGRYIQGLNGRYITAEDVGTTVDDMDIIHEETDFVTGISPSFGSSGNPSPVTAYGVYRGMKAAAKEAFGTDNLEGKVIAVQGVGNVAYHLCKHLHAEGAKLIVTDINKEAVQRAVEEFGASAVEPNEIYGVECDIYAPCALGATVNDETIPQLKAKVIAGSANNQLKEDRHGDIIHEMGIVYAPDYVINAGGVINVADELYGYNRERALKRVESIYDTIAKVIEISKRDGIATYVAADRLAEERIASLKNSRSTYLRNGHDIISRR
Format: biochemical
Excerpt: Wherein Leucine Dehydrogenase (L.D) is used as the enzyme according to the reaction [drawing 9] suitable substrates and their activity relative to L-leucine (100%) are

Point of comparison: `CCCC[C@H](N)C(=O)O` [L-Norleucine], “Relative Activity” value 10%. Against it:
- N[C@@H](CS)C(=O)O [L-Cysteine] — lower, 0.3%
- CC[C@H](C)[C@H](N)C(=O)O [L-Isoleucine] — higher, 58%
- CSCC[C@H](N)C(=O)O [L-Methionine] — lower, 0.6%
- CCC[C@H](N)C(=O)O [L-Norvaline] — higher, 41%
- CC(C)[C@H](N)C(=O)O [L-Valine] — higher, 74%
- CC(C)C[C@H](N)C(=O)O [L-leucine] — higher, 100%

These molecules were tested on L-Lactate Dehydrogenase (LDH) (assay: Relative activity of substrates with L-lactate dehydrogenase (vs L-lactate)). Settings: relative to L-Lactate.
Format: biochemical, Lactobacillus sp.
Excerpt: Wherein, L-Lactate Dehydrogenase (LDH) from Lactobacillus sp. is used as the enzyme in the following reaction, [drawing 10] suitable substrates and their activity relative to L-Lactate are:

`O=C(O)CC(=O)C(=O)O` [Oxoloacetate] was tested, and the “Relative Activity” value was 36%.

The molecules below were run against T3, Glycerol Dehydrogenase (GLY.DH) (Geobacillus stearothermophilus, UniProt P32816) (assay: Relative activity of substrates with glycerol dehydrogenase (vs glycerol)). Settings: relative to glycerol (100%).
T3 sequence (P32816 1-370): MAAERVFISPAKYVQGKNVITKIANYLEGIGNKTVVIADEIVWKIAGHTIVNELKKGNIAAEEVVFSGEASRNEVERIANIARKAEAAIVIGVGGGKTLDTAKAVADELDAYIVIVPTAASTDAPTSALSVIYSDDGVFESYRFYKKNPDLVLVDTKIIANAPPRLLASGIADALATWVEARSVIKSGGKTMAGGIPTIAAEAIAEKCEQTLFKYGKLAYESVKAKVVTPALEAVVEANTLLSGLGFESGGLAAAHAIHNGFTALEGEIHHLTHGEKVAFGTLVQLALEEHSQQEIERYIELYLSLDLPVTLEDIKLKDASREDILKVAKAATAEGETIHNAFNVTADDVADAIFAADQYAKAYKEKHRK
Format: biochemical
Excerpt: Alternatively, using Glycerol Dehydrogenase (GLY.DH) as the enzyme, suitable substrates in the reaction [drawing 8] and their activity relative to glycerol (100%) are

Point of comparison: `CC(O)C(C)O` (centres unmarked) [2,3-Butanediol], “Relative Activity” value 52.6%. Against it:
- OCCO [Ethylene glycol] — lower, 7.8%
- OCC(O)CCl (stereo not drawn) [Glycerol-α-monochlorohydrin] — lower, 48.5%
- OCC(O)CO [glycerol] — higher, 100%

Each molecule was assayed on Glucose Dehydrogenase (GLD) (assay: Relative activity of substrates with glucose dehydrogenase (vs D-glucose)). Settings: rate of reaction relative to D-glucose (100%), NAD coenzyme.
Format: biochemical
Excerpt: If glucose dehydrogenase is used as the enzyme, preferred substrates for reduction of the NAD coenzyme and their relative degree of cross reactivity when compared to D-Glucose are:

Point of comparison: xylose, “Relative Activity” value 8.9%. Against it:
- OC[C@H]1O[C@@H](O)[C@H](O)[C@@H](O)[C@@H]1O [D-Glucose] — higher, 100%
- O=C(CO)[C@@H](O)[C@H](O)[C@H](O)CO [D-fructose] — lower, 0.8%
- OC[C@H]1OC(O)[C@H](O)[C@@H](O)[C@H]1O (stereo partly drawn) [D-galactose] — lower, 0.1%
- OC[C@H]1O[C@@H](O[C@H]2[C@H](O)[C@@H](O)C(O)O[C@@H]2CO)[C@H](O)[C@@H](O)[C@H]1O (stereo partly drawn) [D-lactose] — lower, 1.2%
- OC[C@H]1OC(O)[C@@H](O)[C@@H](O)[C@@H]1O (stereo partly drawn) [D-mannose] — lower, 2.4%
- OC[C@@H](O)[C@@H](O)[C@H](O)[C@@H](O)CO [D-sorbitol] — lower, 0.1%
- O=C(CO)[C@@H](O)[C@H](O)[C@@H](O)CO [L-sorbose] — lower, 0.3%
- O[C@H]1[C@H](O)[C@@H](O)[C@H](O)[C@@H](O)[C@H]1O [inositol] — lower, 0.2%
- OC[C@H]1O[C@H](O[C@H]2[C@H](O)[C@@H](O)[C@H](O)O[C@@H]2CO)[C@H](O)[C@@H](O)[C@@H]1O [maltose] — lower, 3.9%

What follows are molecules tested against T4, L-Alanine Dehydrogenase (A.D) (Lysinibacillus sphaericus, UniProt P17556) (assay: Relative activity of substrate with L-alanine dehydrogenase (vs L-alanine)). Settings: relative to L-alanine (100%).
T4 sequence (P17556 1-372): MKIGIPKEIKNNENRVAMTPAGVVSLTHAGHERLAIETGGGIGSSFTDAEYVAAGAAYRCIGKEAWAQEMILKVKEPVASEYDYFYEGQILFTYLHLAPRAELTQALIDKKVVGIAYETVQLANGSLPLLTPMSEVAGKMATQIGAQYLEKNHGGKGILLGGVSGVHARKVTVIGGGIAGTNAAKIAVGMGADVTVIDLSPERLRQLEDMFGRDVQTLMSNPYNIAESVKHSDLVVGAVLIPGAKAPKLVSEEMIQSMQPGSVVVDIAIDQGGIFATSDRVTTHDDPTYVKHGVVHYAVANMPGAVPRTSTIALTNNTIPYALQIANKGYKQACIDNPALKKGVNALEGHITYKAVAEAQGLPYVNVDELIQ
Format: biochemical
Excerpt: If L-Alanine Dehydrogenase (A.D) is used as the enzyme in a reaction system similar to that used for Leucine Dehydrogenase, a suitable substrate and its activity relative to L-alanine (100%) is […]

Point of comparison: `N[C@@H](CO)C(=O)O` [L-serine], “Relative Activity” value 5%. Against it:
- C[C@H](N)C(=O)O [L-alanine] — higher, 100%

The molecules below were run against T5, G-6-P-DH (Saccharomyces cerevisiae, UniProt P11412) (assay: Relative reactivity of substrates with G-6-P-DH, NADP as coenzyme (vs G-6-P)). Settings: relative to G-6-P-DH/G-6-P pair.
T5 sequence (P11412 1-505): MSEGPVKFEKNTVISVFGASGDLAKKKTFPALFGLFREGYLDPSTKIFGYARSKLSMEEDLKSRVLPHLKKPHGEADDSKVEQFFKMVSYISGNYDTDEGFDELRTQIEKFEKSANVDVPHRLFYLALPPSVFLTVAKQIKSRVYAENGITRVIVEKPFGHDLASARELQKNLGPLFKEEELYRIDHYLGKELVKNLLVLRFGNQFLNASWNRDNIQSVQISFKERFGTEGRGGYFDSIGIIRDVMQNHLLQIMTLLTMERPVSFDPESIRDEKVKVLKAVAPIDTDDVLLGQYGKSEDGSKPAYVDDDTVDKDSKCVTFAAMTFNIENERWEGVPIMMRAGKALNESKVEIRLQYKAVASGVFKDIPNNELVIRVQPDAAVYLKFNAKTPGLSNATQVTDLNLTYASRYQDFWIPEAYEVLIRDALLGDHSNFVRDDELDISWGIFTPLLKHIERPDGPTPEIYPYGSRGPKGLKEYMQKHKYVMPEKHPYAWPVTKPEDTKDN
Format: biochemical, Yeast

Point of comparison: `O=P(O)(O)OC[C@H]1OC(O)C[C@@H](O)[C@@H]1O` (some centres unmarked) [2-deoxyglucose-6-P], relative reactivity 18%. Against it:
- O=P(O)(O)OC[C@H]1OC(O)[C@H](O)[C@@H](O)[C@H]1O (some centres unmarked) [galactose-6-P] — higher, 25%
- N[C@H]1C(O)O[C@H](COP(=O)(O)O)[C@@H](O)[C@@H]1O (some centres unmarked) [glucosamine-6-P] — lower, 2%

Reference: patent US5705356A, “Reagent for invitro diagnostic determination of bicarbonate” (Trace Scientific Limited, priority 1993, dated 1998)
